Columns and labels:
[1] = target: T1, human seritonin transporter (Homo sapiens, UniProt P31645); test: hSERT receptor binding ([125I]-RTI-55 radioligand binding); conditions: membranes of HEK-293 cells transfected with human seritonin transporter, IC50 converted to Ki by Cheng-Prusoff, read-out: SERT (Ki)
T1 construct: host or cells: HEK-293

[2] = target: T2, human norepinephrine transporter (Homo sapiens, UniProt P23975); test: hNET receptor binding ([125I]-RTI-55 radioligand binding); conditions: membranes of HEK-293 cells transfected with human norepinephrine transporter, IC50 converted to Ki by Cheng-Prusoff, read-out: hNET (Ki)
T2 construct: host or cells: HEK-293
T2 sequence (P23975 whole entry): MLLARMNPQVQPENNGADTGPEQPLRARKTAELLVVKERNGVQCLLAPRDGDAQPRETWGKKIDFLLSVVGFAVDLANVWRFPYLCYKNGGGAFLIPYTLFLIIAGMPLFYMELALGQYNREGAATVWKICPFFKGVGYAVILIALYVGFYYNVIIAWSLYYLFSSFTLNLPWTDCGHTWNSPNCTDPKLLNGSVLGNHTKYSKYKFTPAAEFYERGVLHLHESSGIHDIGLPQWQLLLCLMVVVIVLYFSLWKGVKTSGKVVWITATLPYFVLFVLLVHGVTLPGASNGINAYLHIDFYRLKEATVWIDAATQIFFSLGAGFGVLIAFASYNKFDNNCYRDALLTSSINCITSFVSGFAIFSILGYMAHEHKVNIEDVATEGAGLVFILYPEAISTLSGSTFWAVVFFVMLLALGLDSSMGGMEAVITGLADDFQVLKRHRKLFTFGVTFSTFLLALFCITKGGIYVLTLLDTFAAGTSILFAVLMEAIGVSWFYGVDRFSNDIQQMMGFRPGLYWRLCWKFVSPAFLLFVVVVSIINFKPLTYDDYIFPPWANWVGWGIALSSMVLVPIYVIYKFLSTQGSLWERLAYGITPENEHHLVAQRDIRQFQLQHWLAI
How it was run: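 Membranes from HEK-293 cells transfected with human NET. Nonspecific binding defined with 10 μM desipramine, duplicates. IC50 by nonlinear regression, converted to Ki with Cheng-Prusoff.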

T1 sequence (P31645 whole entry): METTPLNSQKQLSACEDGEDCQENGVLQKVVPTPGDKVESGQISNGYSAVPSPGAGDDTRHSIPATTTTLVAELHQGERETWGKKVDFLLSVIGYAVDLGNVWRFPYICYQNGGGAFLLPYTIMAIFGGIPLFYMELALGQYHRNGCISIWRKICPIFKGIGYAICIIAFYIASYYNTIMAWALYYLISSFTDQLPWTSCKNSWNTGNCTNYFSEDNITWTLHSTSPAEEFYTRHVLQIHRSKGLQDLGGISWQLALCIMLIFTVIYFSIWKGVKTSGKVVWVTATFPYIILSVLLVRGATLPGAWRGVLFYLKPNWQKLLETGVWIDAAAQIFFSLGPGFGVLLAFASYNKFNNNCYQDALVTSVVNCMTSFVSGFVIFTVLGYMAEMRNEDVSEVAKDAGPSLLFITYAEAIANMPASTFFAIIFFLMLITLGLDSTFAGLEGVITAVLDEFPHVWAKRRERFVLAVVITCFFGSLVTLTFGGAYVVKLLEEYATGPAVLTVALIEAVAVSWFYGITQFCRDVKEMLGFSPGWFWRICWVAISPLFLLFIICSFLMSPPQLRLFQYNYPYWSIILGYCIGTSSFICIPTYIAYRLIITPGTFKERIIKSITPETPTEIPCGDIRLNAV

Row | Structure (SMILES) | melting point [°C] | Ki [1] [nM] | Ki [2] [nM]
1 | Oc1ccccc1O[C@@H](c1ccccc1)[C@@H]1CNCCO1 [Example 50, (2S,3S)-2-(Morpholin-2-yl-phenyl-methoxy)-phenol] | 156 to 158 | 6260 | 5.2
2 | COc1ncccc1O[C@@H](c1ccccc1)[C@@H]1CNCCO1 [Example 166, (2S)-2-[(S)-[(2-methoxypyridin-3-yl)oxy](phenyl)methyl]morpholine] | – | 1350 | 8
3 | COc1ccc(F)cc1OC(c1ccccc1)[C@@H]1CNCCO1 (stereo partly drawn) [Example 167, (2S)-2-[(5-fluoro-2-methoxyphenoxy)(phenyl)methyl]morpholine] | – | 2550 | 8
4 | COc1c(F)cccc1OC(c1ccccc1)[C@@H]1CNCCO1 (stereo partly drawn) [Example 168, (2S)-2-[(3-fluoro-2-methoxyphenoxy)(phenyl)methyl]morpholine] | – | 791 | 5
5 | CCOc1ccc(F)cc1OC(c1ccccc1)[C@@H]1CNCCO1 (stereo partly drawn) [Example 169, (2S)-2-[(2-ethoxy-5-fluorophenoxy)(phenyl)methyl]morpholine] | – | 2980 | 6
6 | CCOc1c(F)cccc1OC(c1ccccc1)[C@@H]1CNCCO1 (stereo partly drawn) [Example 170, (2S)-2-[(2-ethoxy-3-fluorophenoxy)(phenyl)methyl]morpholine] | – | 4930 | 11
7 | CCCOc1cccc(F)c1O[C@@H](c1ccccc1)[C@@H]1CNCCO1 [Example 171, (2S)-2-[(S)-(2-fluoro-6-propoxyphenoxy)(phenyl)methyl]morpholine] | – | 1040 | 20
8 | Cc1coc(C(Oc2c(F)cccc2F)[C@@H]2CNCCO2)n1 (stereo partly drawn) [Example 173, (2S)-2-[(2,6-difluorophenoxy)(4-methyl-1,3-oxazol-2-yl)methyl]morpholine] | – | ≥ 10000 | 12
9 | Cc1coc(C(Oc2ccccc2OC(F)(F)F)[C@@H]2CNCCO2)n1 (stereo partly drawn) [Example 174, (2S)-2-{(4-methyl-1,3-oxazol-2-yl)[2-(trifluoromethoxy)phenoxy]methyl}morpholine] | – | 7520 | 18
10 | Fc1cccc(F)c1OC(c1nccs1)[C@@H]1CNCCO1 (stereo partly drawn) [Example 175, (2S)-2-[(2,6-difluorophenoxy)(1,3-thiazol-2-yl)methyl]morpholine] | – | 7640 | 15
11 | CCCC[C@H](Oc1cccnc1OCC)[C@@H]1CNCCO1 [Example 176, (2S)-2-{(1S)-1-[(2-ethoxypyridin-3-yl)oxy]pentyl}morpholine] | – | 3420 | 5
12 | Cc1coc(C(Oc2ccccc2Br)[C@@H]2CNCCO2)n1 (stereo partly drawn) [Example 177, (2S)-2-[(2-bromophenoxy)(4-methyl-1,3-oxazol-2-yl)methyl]morpholine] | – | 1960 | 7
13 | Cc1cccc(F)c1O[C@@H](c1ccccc1)[C@@H]1CNCCO1 [Example 178, (2S)-2-[(S)-(2-fluoro-6-methylphenoxy)(phenyl)methyl]morpholine] | – | 61 | 3
14 | CC(C)c1ncccc1O[C@@H](c1ccccc1)[C@@H]1CNCCO1 [Example 179, (2S)-2-[(S)-[(2-isopropylpyridin-3-yl)oxy](phenyl)methyl]morpholine] | – | 2550 | 18
15 | CCOc1ccccc1OC(c1nccs1)[C@@H]1CNCCO1 (stereo partly drawn) [Example 180, (2S)-2-[(2-ethoxyphenoxy)(1,3-thiazol-2-yl)methyl]morpholine] | – | 8230 | 9
16 | CCOc1ccccc1O[C@H](c1ccccn1)[C@H]1CNCCO1 [Example 181, (2R)-2-[(R)-(2-ethoxyphenoxy)(pyridin-2-yl)methyl]morpholine] | – | 4900 | 225

Row | Structure (SMILES) | melting point [°C] | Ki [1] [nM] | Ki [2] [nM]
17 | CC(C)Cc1ncccc1O[C@@H](c1ccccc1)[C@@H]1CNCCO1 [Example 182, (2S)-2-[(S)-[(2-isobutylpyridin-3-yl)oxy](phenyl)methyl]morpholine] | – | 7080 | 31
18 | CC(C)c1cccc(F)c1O[C@@H](c1ccccc1)[C@@H]1CNCCO1 [Example 183, (2S)-2-[(S)-(2-fluoro-6-isopropylphenoxy)(phenyl)methyl]morpholine] | – | 5340 | 7
19 | COc1cccc([C@H](Oc2c(F)cccc2Br)[C@@H]2CNCCO2)n1 [Example 185, (2S)-2-[(S)-(2-bromo-6-fluorophenoxy)(6-methoxypyridin-2-yl)methyl]morpholine] | – | 201 | 8
20 | Fc1cccc(Br)c1O[C@@H](c1ccccn1)[C@@H]1CNCCO1 [Example 186, (2S)-2-[(S)-(2-bromo-6-fluorophenoxy)(pyridin-2-yl)methyl]morpholine] | – | 1260 | 8
21 | COc1cccc([C@H](Oc2ccccc2Br)[C@@H]2CNCCO2)n1 [Example 187, (2S)-2-[(S)-(2-bromophenoxy)(6-methoxypyridin-2-yl)methyl]morpholine] | – | 224 | 15
22 | COc1cccc([C@H](Oc2c(F)cccc2OC)[C@@H]2CNCCO2)n1 [Example 188, (2S)-2-[(S)-(2-fluoro-6-methoxyphenoxy) (6-methoxypyridin-2-yl)methyl]morpholine] | – | 2210 | 14
23 | CCOc1ncccc1OC(C(C)C)[C@@H]1CNCCO1 (stereo partly drawn) [Example 189, (2S)-2-{1-[(2-ethoxypyridin-3-yl)oxy]-2-methylpropyl}morpholine] | – | 5220 | 147
24 | Cc1coc(C(Oc2ccccc2C2CC2)[C@@H]2CNCCO2)n1 (stereo partly drawn) [Example 190, (2S)-2-[(2-cyclopropylphenoxy)(4-methyl-1,3-oxazol-2-yl)methyl]morpholine] | – | 4340 | 6
25 | CCC[C@H](Oc1cccnc1OCC)[C@@H]1CNCCO1 [Example 191, (2S)-2-{(1S)-1-[(2-ethoxypyridin-3-yl)oxy]butyl}morpholine] | – | 5830 | 6
26 | c1ccc([C@H](Oc2cccnc2OCC2CC2)[C@@H]2CNCCO2)cc1 [Example 192, (2S)-2-[(S)-{[2-(cyclopropylmethoxy)pyridin-3-yl]oxy}(phenyl)methyl]morpholine] | – | 1880 | 38
27 | Fc1cccc(C(F)(F)F)c1O[C@@H](c1ccccc1)[C@@H]1CNCCO1 [Example 193, (2S)-2-[(S)-[2-fluoro-6-(trifluoromethyl)phenoxy](phenyl)methyl]morpholine] | – | 707 | 3
28 | Fc1cccc(OC(F)(F)F)c1O[C@@H](c1ccccc1)[C@@H]1CNCCO1 [Example 194, (2S)-2-[(S)-[2-fluoro-6-(trifluoromethoxy)phenoxy](phenyl)methyl]morpholine] | – | 2560 | 9
29 | CCOc1ncccc1O[C@@H](Cc1ccccc1)[C@@H]1CNCCO1 [Example 197, (2S)-2-{(1S)-1-[(2-ethoxypyridin-3-yl)oxy]-2-phenylethyl}morpholine] | – | 811 | 18
30 | CSc1cc(F)ccc1O[C@@H](c1ccccc1)[C@@H]1CNCCO1 [Example 198, (2S)-2-[(S)-[4-fluoro-2-(methylthio)phenoxy](phenyl)methyl]morpholine] | – | 62 | 30
31 | COc1cccc([C@H](Oc2c(F)cccc2F)[C@@H]2CNCCO2)n1 [Example 199, (2S)-2-[(S)-(2,6-difluorophenoxy)(6-methoxypyridin-2-yl)methyl]morpholine] | – | 2940 | 8
32 | c1cnc(OC[C@H]2CNCCO2)c(OC[C@H]2CNCCO2)n1 [Example 200, (2R,2′R)-2,2′-[pyrazine-2,3-diylbis(oxymethylene)]dimorpholine] | – | ≥ 10000 | 9550

From patent US7659394B2 (Pfizer Inc, priority 2004, dated 2010)
